Experimental data: patent US12016943B2, “Antiperspirant or deodorant composition” (Firmenich SA, priority 2016, dated 2024)

What was measured:
[1] = Assessment of coloration of deodorant or antiperspirant formulations containing perfuming ingredients with or without Haloscent D; format: physicochemical; parameters: key: CO: color; COYE: yellow color; SCOYE: slight yellow color; VCOYE: very yellow color; NC: no color; DECO: discoloration; CL: cloud; VCL: very cloud; WH: white; VCOBR: very brown color; COPI: ping color; conditions: perfuming ingredient 0.5 wt %, after 15 days; for Coloration of deodorant spray: DEO SPRAY + Haloscent D 0.5 wt %; for Coloration of deodorant stick: DEO STICK + Haloscent D 0.5 wt %
Experimental: (§1) Preparation of an Antiperspirant Spray Formulation: Using a high speed stirrer, Silica (Table 1) and Quaternium-18-Hectorite (Table 1) were added to the Isopropyl miristate (Table 1) and Cyclomethicone mixture (Table 1). Once completely swollen, Aluminium Chlorohydrate (Table 1) was added portion wise under stirring until the mixture was homogeneous and without lumps. The aerosol cans were filled with 25% Suspension of the suspension and 75% of Propane/Butane (2.5 bar).
(§2) Preparation of Deodorant Spray Formulation: All the ingredients according to the sequence of the Table 2 were mixed and dissolved. Then the aerosol cans were filled, crimp and add the propellant (Aerosol filling: 40% active solution 60% Propane/Butane 2.5 bar).
(§3) Part A was prepared by sprinkling little by little the Hydroxyethylcellulose (Table 3) in the water (Table 3) whilst rapidly stirring with the turbine. Stirring was continued until the Hydroxyethylcellulose had entirely swollen and giving a limpid gel. Then, Part B (Table 3) was poured little by little in Part A whilst continuing stirring until the whole was homogeneous. Part C was added (Table 3).
(§4) Preparation of a Deodorant Stick Formulation: All the components of Part A were weighted (Table 4) and heated up to 70-75° C. Ceteareth-25 (Table 4) was added once the other Part A ingredients were mixed and heated. Once the Ceteareth-25 was dissolved, the Stearic Acid was added. Part B was prepared by dissolving the Triclosan (Table 4) in 1,2 Propylene Glycol (Table 4). Water which has evaporated was added. Slowly under mixing, Part B was poured into part A. To stock, a plastic bag into the bucket was put in to be sealed after cooling. Moulds was filled at about 70° C.
(§5) Preparation of an Antiperspirant Stick Formulation: All the components of Part A were weighted (Table 5), heated up to 70-75° C. and mixed well. Ingredient of Part B was dispersed in Part A. The mixture was mixed and putted into a tick at 65° C.
(§6) Assessment of Coloration in the Perfuming Ingredients: To set of deodorant or antiperspirant formulations of point a) to e) has been prepared. A perfuming ingredient (0.5 wt %—Table 6, 7 and 8) was added to the first set a and a perfuming ingredient (0.5 wt %—Table 6, 7 and 8) and Haloscent® D (0.5 wt %) were added to the second set. All these formulations were placed at 3° C. and 45° C. for several weeks. All formulations were evaluated in comparison with unperfumed deodorant or antiperspirant formulation. The coloration of each formulation was assessed by a minimum of 2 panelists.

[2] = as above; format: physicochemical; parameters: key to Coloration of antiperspirant stick: CO: color; COYE: yelow color; VSCOYE: very slight yellow color; SCOYE: slight yellow color; VCOYE: very yellow color; NC: no color; DECO: decoloration; CL: cloud; VCL: very cloud; WH: white; VCOBR: very brown color; COPI: ping color; conditions: perfuming ingredient 0.5 wt %; for Coloration of antiperspirant stick: after 7 days
Experimental: as §1, §2, §3, §4, §5, §6

[3] = as above; format: physicochemical; parameters: key: CO: color; COYE: yelow color; VSCOYE: very slight yellow color; SCOYE: slight yellow color; VCOYE: very yellow color; NC: no color; DECO: decoloration; CL: cloud; VCL: very cloud; WH: white; VCOBR: very brown color; COPI: ping color; conditions: perfuming ingredient 0.5 wt %, after 15 days
Experimental: as §1, §2, §3, §4, §5, §6

[4] = Sensory evaluation of spray deodorant on cotton t-shirts: perceived fragrance intensity; conditions: deodorant spray on t-shirt, immediately after application
Source text: Test formulations comprising either fragrance formulation 1 containing the β-thio carbonyl derivative profragrance of formula (I), commercially available as HALOSCENT®-D, at the amounts indicated, or fragrance formulation 1 containing the 0-thio carbonyl derivative profragrance of formula (I), commercially available as HALOSCENT®-I were formulated as deodorant sprays.
One gram of each of the test formulation was applied to separate 2-3 year old cotton t-shirts. In parallel, control formulations, comprising fragrance formulation alone (i.e., lacking the β-thio carbonyl derivative profragrance of formula (I)) were similarly applied to separate t-shirts.
A minimum of 18 skilled panelists were asked to evaluate the intensity of the fragrance of the […], in a blind, balanced, randomized study, with a 20 second break between samples.
The panelists were asked to rank the intensity of the fragrance from 0 (not perceptible), to 10 (very strong odour). The results of the evaluation were analyzed using Analysis of Variance with Duncan's post-hoc analysis (α=0.05). The analyzed results are shown in FIG. 1, where the average for each sample at the times indicated are shown. The error bars indicate the 95% confidence level. ***=a significant difference at 99.9%; **=a significant difference at 99%; *=significant difference at 95%; NS=no significant difference.

[5] = AP Stick + Haloscent D 0.5 wt %, 3° C.
[6] = AP Stick + Haloscent D 0.5 wt %, 45° C.
[7] = AP SPRAY + Haloscent D 0.5 wt %, 3° C.
[8] = AP SPRAY + Haloscent D 0.5 wt %, 45° C.
[9] = DEO ROLL-ON + Haloscent D 0.5 wt %, 3° C.
[10] = DEO ROLL-ON + Haloscent D 0.5 wt %, 45° C.
[11] = DEO STICK + Haloscent D 0.5 wt %, 3° C.

Row | Compound | Coloration of deodorant spray ([1]; 45° C.) | Coloration of antiperspirant stick [2, 5] | Coloration of antiperspirant stick [2, 6] | Coloration of antiperspirant stick ([2]; AP Stick, 3° C.) | Coloration of antiperspirant stick ([2]; AP Stick, 45° C.) | Coloration of antiperspirant spray [3, 7] | Coloration of antiperspirant spray [3, 8] | Coloration of deodorant roll-on [3, 9] | Coloration of deodorant roll-on [3, 10] | Coloration of deodorant roll-on ([3]; DEO ROLL-ON, 3° C.) | Coloration of deodorant roll-on ([3]; DEO ROLL-ON, 45° C.) | Coloration of deodorant stick [3, 11] | Coloration of deodorant stick ([3]; DEO STICK, 3° C.) | Coloration of deodorant stick ([3]; DEO STICK, 45° C.) | other results
1 | 1-OXA-12-CYCLOHEXADECEN-2-ONE (A) + 1-OXA-13-CYCLOHEXADECEN-2-ONE [HABANOLIDE] | DECO | DECO | SCOYE | DECO | VSCOYE | SCOYE | SCOYE | WH | VCL | VCL | VCL | NC | NC | NC | Coloration of deodorant spray ([1]; 3° C.): DECO; Coloration of antiperspirant spray ([3]; AP SPRAY, 3° C.): NC; Coloration of antiperspirant spray ([3]; AP SPRAY, 45° C.): NC; Coloration of deodorant spray ([3]; DEO SPRAY, 3° C.): NC; Coloration of deodorant spray ([3]; DEO SPRAY, 45° C.): NC; Coloration of deodorant stick ([3]; DEO STICK + Haloscent D 0.5 wt %, 45° C.): NC
2 | CC(C)=CCC/C(C)=C/CO [(E)-3,7-DIMETHYL-2,6-OCTADIEN-1-OL] | – | VSCO | NC | DECO | NC | – | – | NC | NC | NC | NC | – | NC | NC | Coloration of deodorant stick ([1]; 3° C.): COYE; Coloration of deodorant stick ([1]; 45° C.): COYE
3 | CCCCCCCCCCCCSC(CC(C)=O)C1C(C)=CCCC1(C)C (centres unmarked) [HALOSCENT®-I, 4-(dodecylthio)-4-(2,6,6-trimethylcyclohex-2-en-1-yl)butan-2-one] | – | – | – | – | – | – | – | – | – | – | – | – | – | – | Perceived intensity of fragrance versus control formulation (FIG. 1) ([4]; fragrance formulation 1 containing 3% HALOSCENT-I): significant increases
4 | CCCCCCCCCCCCSC(C)CC(=O)C1C(C)C=CCC1(C)C (centres unmarked) [Haloscent ® D, 3-(dodecylthio)-1-(2,6,6-trimethylcyclohex-3-en-1-yl)butan-1-one] | COYE | DECO PI | DECO PI | – | – | NC | SCOYE | NC | NC | – | – | NC | – | – | Coloration of deodorant stick ([2]; DEO STICK + Haloscent D 0.5 wt %, 45° C., after 15 days): COYE CL; Coloration of deodorant spray ([3]; DEO SPRAY + Haloscent D 0.5 wt %, 3° C.): SCOYE; Perceived intensity of fragrance versus control formulation (FIG. 1) ([4]; fragrance formulation 1 containing 1.2% HALOSCENT-D): significant increases
